Patent US10836725B2, “Modulators of the integrated stress pathway” (Calico Life Sciences LLC, priority 2016, dated 2020)

system: ATF4 luciferase reporter; assay: ATF4-Luc assay in HEK293T cells carrying the ATF4 luciferase reporter (in vitro model of VWMD); assay type: cell-based, human; conditions: Homo sapiens, HEK-293T, 1 μg/mL tunicamycin, 7 hours, luminescence (One Glo)
Procedure: In order to test exemplary compounds of the invention in a cellular context, a stable VWMD cell line was first constructed. The ATF4 reporter was prepared by fusing the human full-length ATF4 5′-UTR (NCBI Accession No. BC022088.2) in front of the firefly luciferase (FLuc) coding sequence lacking the initiator methionine as described in Sidrauski et al (eLife 2013). The construct was used to produce recombinant retroviruses using standard methods and the resulting viral supernatant was used to transduce HEK293T cells, which were then subsequently selected with puromycin to generate a stable cell line.
HEK293T cells carrying the ATF4 luciferase reporter were plated on polylysine coated 384-well plates (Greiner Bio-one) at 30,000 cells per well. Cells were treated the next day with 1 μg/mL tunicamycin and 200 nM of a compound of Formula (I) for 7 hours. Luminescence was measured using One Glo (Promega) as specified by the manufacturer. Cells were maintained in DMEM with L-glutamine supplemented with 10% heat-inactivated FBS (Gibco) and Antibiotic-Antimycotic solution (Gibco).
Table 2 below summarizes the EC50 data obtained using the ATF4-Luc assay for exemplary compounds of the invention.

`O=C(COc1ccc(Cl)c(F)c1)NC12CCC(C(=O)NCc3ccc(C(F)(F)F)cn3)(CC1)[C@@H](O)C2` (single isomer, unassigned) [Compound 114] and `O=C(COc1ccc(Cl)c(F)c1)NC12CCC(C(=O)NCc3cc(C(F)(F)F)ccn3)(CC1)C(O)C2` (stereo not shown) [Compound 120, 4-[2-(4-chloro-3-fluorophenoxy)acetamido]-2-hydroxy-N-{[4-(trifluoromethyl)pyridin-2-yl]methyl}bicyclo[2.2.2]octane-1-carboxamide] cannot be ordered by EC50: < 250 nM for the first, < 250 nM for the second.

`O=C(COc1ccc(Cl)c(F)c1)NC12CC(C(=O)NCCc3cccnc3)(C1)C2` [Compound 242, 3-[2-(4-chloro-3-fluorophenoxy)acetamido]-N-[2-(pyridin-3-yl)ethyl]bicyclo[1.1.1]pentane-1-carboxamide] and `O=C(COc1ccc(Cl)c(F)c1)NC12CC(C(=O)NCc3cccc(F)c3)(C1)C2` [Compound 237, 3-[2-(4-chloro-3-fluorophenoxy)acetamido]-N-[(3-fluorophenyl)methyl]bicyclo[1.1.1]pentane-1-carboxamide] cannot be ordered by EC50: > 2000 nM for the first, > 2000 nM for the second.

`Cc1noc(C)c1CCCNC(=O)C12CC(NC(=O)COc3ccc(Cl)c(F)c3)(C1)C2` [Compound 220, 3-[2-(4-chloro-3-fluorophenoxy)acetamido]-N-[3-(3,5-dimethyl-1,2-oxazol-4-yl)propyl]bicyclo[1.1.1]pentane-1-carboxamide] and `CCc1csc(CCNC(=O)C23CC(NC(=O)COc4ccc(Cl)c(F)c4)(C2)C3)n1` [Compound 230, 3-[2-(4-chloro-3-fluorophenoxy)acetamido]-N-[2-(4-ethyl-1,3-thiazol-2-yl)ethyl]bicyclo[1.1.1]pentane-1-carboxamide] cannot be ordered by EC50: > 2000 nM for the first, > 2000 nM for the second.

First: O=C(COc1ccc(Cl)cc1)NC12CC(C(=O)NCCOc3ccc(F)cc3)(C1)C2 [Compound 102, 3-[2-(4-chlorophenoxy)acetamido]-N-[2-(4-fluorophenoxy)ethyl]bicyclo[1.1.1]-pentane-1-carboxamide]
Second: O=C(COc1ccc(Cl)c(F)c1)NC12CC(C(=O)NCc3ccccc3F)(C1)C2 [Compound 210, 3-[2-(4-chloro-3-fluorophenoxy)acetamido]-N-[(2-fluorophenyl)methyl]bicyclo[1.1.1]pentane-1-carboxamide]
The EC50 of the first is lower: 250 to 500 nM for the first, > 2000 nM for the second. The first is the more potent here.

Going from `COc1ccc(CNC(=O)C23CCC(NC(=O)COc4ccc(Cl)c(F)c4)(CC2)CC3O)cc1` (stereo not shown) [Compound 128, 4-[2-(4-chloro-3-fluorophenoxy)acetamido]-2-hydroxy-N-[(4-methoxyphenyl)methyl]bicyclo[2.2.2]octane-1-carboxamide] to `O=C(COc1ccc(Cl)c(F)c1)NC12CC(C(=O)NCc3cccc(OC(F)F)c3)(C1)C2` [Compound 250, 3-[2-(4-chloro-3-fluorophenoxy)acetamido]-N-{[3-(difluoromethoxy)phenyl]methyl}bicyclo[1.1.1]pentane-1-carboxamide], the EC50 rises from < 250 nM to > 2000 nM. The first is the more potent here.

First: O=C(COc1ccc(Cl)c(F)c1)NC12CC(C(=O)NCc3ccc(OC(F)F)cn3)(C1)C2 [Compound 147, 3-[2-(4-chloro-3-fluorophenoxy)acetamido]-N-{[5-(difluoromethoxy)pyridin-2-yl]methyl}bicyclo[1.1.1]pentane-1-carboxamide]
Second: COc1ncc(CNC(=O)C23CC(NC(=O)COc4ccc(Cl)c(F)c4)(C2)C3)cn1 [Compound 200, 3-[2-(4-chloro-3-fluorophenoxy)acetamido]-N-[(2-methoxypyrimidin-5-yl)methyl]bicyclo[1.1.1]pentane-1-carboxamide]
The EC50 of the first is lower: 250 to 500 nM for the first, > 2000 nM for the second.

With `O=C(COc1ccc(Cl)c(F)c1)NC12CC(C(=O)NCc3c(F)cc(Cl)cc3F)(C1)C2` [Compound 181, N-[(4-chloro-2,6-difluorophenyl)methyl]-3-[2-(4-chloro-3-fluorophenoxy)acetamido]bicyclo[1.1.1]pentane-1-carboxamide] the EC50 was > 2000 nM.
